Assays:
[1] = target: T1, Gonadotropin-releasing hormone receptor (Homo sapiens, UniProt P30968); experiment: Inhibition of GnRH-stimulated phosphatidylinositol (PI) hydrolysis in cloned chinese hamster ovary (CHO) cells expressing human GnRH receptor.; type: functional, cell-based
T1 sequence (P30968 whole entry): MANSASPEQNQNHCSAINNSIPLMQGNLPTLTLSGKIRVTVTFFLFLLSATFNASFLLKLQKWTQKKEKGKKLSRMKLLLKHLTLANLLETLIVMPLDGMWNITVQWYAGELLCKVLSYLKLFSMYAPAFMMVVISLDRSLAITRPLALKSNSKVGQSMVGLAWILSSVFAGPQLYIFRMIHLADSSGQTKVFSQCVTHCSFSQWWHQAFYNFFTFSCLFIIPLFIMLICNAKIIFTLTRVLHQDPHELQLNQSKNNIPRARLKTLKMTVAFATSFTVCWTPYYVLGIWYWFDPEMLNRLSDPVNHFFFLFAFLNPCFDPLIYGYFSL

[2] = target: Gonadotropin-releasing hormone receptor (Homo sapiens) (UniProt P30968); experiment: Inhibition of [125I]buserelin binding to human Gonadotropin-releasing hormone receptor.
[3] = target: T1, Gonadotropin-releasing hormone receptor; experiment: Inhibition of [125I]buserelin binding to human Gonadotropin-releasing hormone receptor.
[4] = target: T2, Gonadotropin-releasing hormone receptor (Rattus norvegicus, UniProt P30969); experiment: Inhibition of GnRH-stimulated luteinizing hormone (LH) release in rat pituitary cells; type: functional, cell-based, Pituitary gland cell
T2 sequence (P30969 whole entry): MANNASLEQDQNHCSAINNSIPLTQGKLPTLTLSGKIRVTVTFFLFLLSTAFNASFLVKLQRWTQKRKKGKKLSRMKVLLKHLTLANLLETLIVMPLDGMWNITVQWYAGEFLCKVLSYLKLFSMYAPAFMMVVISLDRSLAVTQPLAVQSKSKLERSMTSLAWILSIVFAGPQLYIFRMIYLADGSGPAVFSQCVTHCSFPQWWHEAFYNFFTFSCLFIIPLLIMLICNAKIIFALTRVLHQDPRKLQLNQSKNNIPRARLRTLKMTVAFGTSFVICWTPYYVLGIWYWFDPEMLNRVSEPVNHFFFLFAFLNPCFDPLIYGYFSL

[5] = target: T2, Gonadotropin-releasing hormone receptor; experiment: Inhibition of [125I]buserelin binding to rat Gonadotropin-releasing hormone receptor.
[6] = target: T2, Gonadotropin-releasing hormone receptor; experiment: Compound tested for the inhibition of GnRH-stimulated luteinizing hormone (LH) release in rat pituitary cells; type: functional, cell-based, Pituitary gland cell

Row | SMILES | IC50 [1] [nM] | IC50 [2] [nM] | IC50 [3] [nM] | IC50 [4] [nM] | IC50 [5] [nM] | IC50 [6] [nM]
1 | CCN(C(=O)c1ccc2[nH]c(-c3cc(C)cc(C)c3)c(CCNCCCCc3cccnc3)c2c1)C(C)C | 110 | – | 11 | 830 | – | –
2 | CCN(C(=O)c1ccc2[nH]c(-c3cc(C)cc(C)c3)c(CCNCCCCc3ccncc3)c2c1)C1CCCCCCC1 | 15 | – | 1.9 | 81 | – | –
3 | Cc1cc(C)cc(-c2[nH]c3ccc(C4(C(=O)N5C6CCC5CC6)CCC4)cc3c2CCNCCCCc2ccncc2)c1 | 170 | 1.2 | – | – | – | –
4 | CCN(CC)C(=O)c1ccc2[nH]c(-c3cc(C)cc(C)c3)c(CCN(C)CCCCc3ccncc3)c2c1 | 58 | – | 30 | 430 | – | –
5 | CCCCN(CCCC)C(=O)c1ccc2[nH]c(-c3cc(C)cc(C)c3)c(CCNCCCCc3ccncc3)c2c1 | – | – | – | 240 | 0.4 | –
6 | CCN(CC)C(=O)C(C)(C)c1ccc2[nH]c(-c3cc(C)cc(C)c3)c(CCNCCCCc3cccnc3)c2c1 | 94 | 3.3 | – | 240 | – | –
7 | Cc1cc(C)cc(-c2[nH]c3ccc(C(=O)N4C(C)CCC4C)cc3c2CCNCCCCc2ccncc2)c1 (stereo not given) | – | – | – | 340 | 0.3 | –
8 | Cc1cc(C)cc(-c2[nH]c3ccc(C(C)(C)C(=O)N4CCCC4)cc3c2CCNCCCCc2cccnc2)c1 | 61 | 5 | – | 290 | – | –
9 | CCN(CCCCc1ccncc1)CCc1c(-c2cc(C)cc(C)c2)[nH]c2ccc(C(C)(C)C(=O)N3C4CCC3CC4)cc12 | 90 | 2.2 | – | 730 | – | –
10 | Cc1cc(C)cc(-c2[nH]c3ccc(C(C)(C)C(=O)N(CC(C)C)CC(C)C)cc3c2CCNCCCCc2cccnc2)c1 | 22 | 1.7 | – | 400 | – | –
11 | CCN(CCO)C(=O)c1ccc2[nH]c(-c3cc(C)cc(C)c3)c(CCNCCCCc3ccncc3)c2c1 | 260 | – | 36 | 1000 | – | –
12 | Cc1cc(C)cc(-c2[nH]c3ccc(C(C)(C)C(=O)N(CC(C)C)CC(C)C)cc3c2CCNCCCCc2ccncc2)c1 | 8.3 | 2.8 | – | 140 | – | –
13 | COCCN(CCOC)C(=O)c1ccc2[nH]c(-c3cc(C)cc(C)c3)c(CCNCCCCc3cccnc3)c2c1 | 610 | – | 45 | 1300 | – | –
14 | Cc1cc(C)cc(-c2[nH]c3ccc(C(C)(C)C(=O)N4CCOCC4)cc3c2CCNCCCCc2ccncc2)c1 | 59 | 11 | – | 540 | – | –
15 | Cc1cc(C)cc(-c2[nH]c3ccc(C(C)(C)C(=O)N4CCCC4)cc3c2CCNCCCCc2ccncc2)c1 | – | 4.8 | – | – | – | 340
16 | CCN(CC)C(=O)c1ccc2[nH]c(-c3cc(C)cc(C)c3)c(CCNCCCCc3cccnc3)c2c1 | 190 | – | 23 | 400 | 0.6 | –
17 | Cc1cc(C)cc(-c2[nH]c3ccc(C(=O)N4CCOCC4)cc3c2CCNCCCCc2cccnc2)c1 | – | – | – | 1600 | 0.4 | –
18 | Cc1cc(C)cc(-c2[nH]c3ccc(C(=O)N(CC(C)C)CC(C)C)cc3c2CCNCCCCc2ccncc2)c1 | 80 | – | 7.1 | 380 | 0.6 | –
19 | CCN(C(=O)c1ccc2[nH]c(-c3cc(C)cc(C)c3)c(CCNCCCCc3ccncc3)c2c1)C1CCCCC1 | 22 | – | 2.8 | 130 | 0.4 | –
20 | Cc1cc(C)cc(-c2[nH]c3ccc(C(C)(C)C(=O)N(C)C)cc3c2CCNCCCCc2cccnc2)c1 | – | – | – | 680 | 0.5 | –
21 | Cc1cc(C)cc(-c2[nH]c3ccc(C(C)(C)C(N)=O)cc3c2CCNCCCCc2cccnc2)c1 | 350 | – | 32 | – | – | –
22 | Cc1cc(C)cc(-c2[nH]c3ccc(C(C)(C)C(=O)N(C)C)cc3c2CCNCCCCc2ccncc2)c1 | – | – | – | 930 | 0.3 | –
23 | CCCCN(CCCC)C(=O)c1ccc2[nH]c(-c3cc(C)cc(C)c3)c(CCNCCCCc3cccnc3)c2c1 | – | – | – | 1000 | 0.4 | –
24 | CCN(CC)C(=O)C(C)(C)c1ccc2[nH]c(-c3cc(C)cc(C)c3)c(CCNCCCCc3ccncc3)c2c1 | 58 | 3.2 | – | 210 | – | –
25 | Cc1cc(C)cc(-c2[nH]c3ccc(C(C)(C)C(=O)N4C5CCC4CC5)cc3c2CCNCCCCc2ccncc2)c1 | 18 | 1.4 | – | 71 | – | –
26 | Cc1cc(C)cc(-c2[nH]c3ccc(C(C)(C)C(=O)N4C5CCC4CC5)cc3c2CCNCCCCc2cccnc2)c1 | 14 | 1.4 | – | 73 | – | –
27 | Cc1cc(C)cc(-c2[nH]c3ccc(C(=O)N(CC(F)(F)F)CC(F)(F)F)cc3c2CCNCCCCc2ccncc2)c1 | 91 | – | 36 | 3600 | 0.6 | –
28 | Cc1cc(C)cc(-c2[nH]c3ccc(C(=O)N4C5CCC4CC5)cc3c2CCNCCCCc2ccncc2)c1 | 260 | – | 32 | – | – | –
29 | Cc1cc(C)cc(-c2[nH]c3ccc(C(C)(C)C(=O)N4C(C)CCC4C)cc3c2CCNCCCCc2ccncc2)c1 (stereo not given) | 15 | 2.8 | – | 160 | – | –

Other lines, results leading:

Row | IC50 [1] [nM] | IC50 [2] [nM] | IC50 [3] [nM] | IC50 [4] [nM] | IC50 [5] [nM] | IC50 [6] [nM] | SMILES
30 | 200 | 3.1 | – | – | – | – | Cc1cc(C)cc(-c2[nH]c3ccc(C(C)(C)C(=O)N4C5CCC4CC5)cc3c2CCN(CCCCc2ccncc2)C(C)C)c1
31 | 16 | – | 2.3 | 140 | 0.2 | – | CCN(C(=O)c1ccc2[nH]c(-c3cc(C)cc(C)c3)c(CCNCCCCc3cccnc3)c2c1)C1CCCCC1
32 | 120 | – | 5 | 150 | 0.7 | – | Cc1cc(C)cc(-c2[nH]c3ccc(C(=O)N(CC(C)C)CC(C)C)cc3c2CCNCCCCc2cccnc2)c1
33 | – | – | – | 1460 | 0.8 | – | Cc1cc(C)cc(-c2[nH]c3ccc(C(=O)N(C)C)cc3c2CCNCCCCc2ccncc2)c1
34 | 110 | 1.5 | – | 71 | – | – | Cc1cc(C)cc(-c2[nH]c3ccc(C(C)(C)C(=O)N4C5CCC4CC5)cc3c2CCN(C)CCCCc2ccncc2)c1
35 | 12 | – | 18 | 470 | 0.5 | – | CCN(CC)C(=O)c1ccc2[nH]c(-c3cc(C)cc(C)c3)c(CCNCCCCc3ccncc3)c2c1
36 | 40 | 1.7 | – | 260 | – | – | CCC(CC)(C(=O)N1C2CCC1CC2)c1ccc2[nH]c(-c3cc(C)cc(C)c3)c(CCNCCCCc3ccncc3)c2c1
37 | 300 | 8.2 | – | – | – | – | Cc1cc(C)cc(-c2[nH]c3ccc(C(C)(C)C(=O)N4C5CCC4CC5)cc3c2CCN(CCCCc2ccncc2)CC(C)C)c1
38 | 38 | 1 | – | 240 | – | – | CCC(C)(C(=O)N1C2CCC1CC2)c1ccc2[nH]c(-c3cc(C)cc(C)c3)c(CCNCCCCc3ccncc3)c2c1 (stereo not given)
39 | 38 | 1.8 | – | 1200 | – | – | Cc1cc(C)cc(-c2[nH]c3ccc(C(C)(C)C(=O)N4CCCCC4)cc3c2CCNCCCCc2ccncc2)c1
40 | – | – | – | 1200 | 0.6 | – | CCN(CCO)C(=O)c1ccc2[nH]c(-c3cc(C)cc(C)c3)c(CCNCCCCc3cccnc3)c2c1
41 | – | – | – | 2600 | 0.7 | – | Cc1cc(C)cc(-c2[nH]c3ccc(C(=O)N(C)C)cc3c2CCNCCCCc2cccnc2)c1
42 | 62 | 1 | – | 190 | – | – | Cc1cc(C)cc(-c2[nH]c3ccc(C(C)(C)C(=O)N4CC(C)(C)C4)cc3c2CCNCCCCc2cccnc2)c1
43 | 1200 | – | 55 | > 1300 | – | – | Cc1cc(C)cc(-c2[nH]c3ccc(C(=O)NC(C)C)cc3c2CCNCCCCc2cccnc2)c1
44 | 54 | 2.3 | – | 960 | – | – | CCN(C(=O)C(C)(C)c1ccc2[nH]c(-c3cc(C)cc(C)c3)c(CCNCCCCc3ccncc3)c2c1)C1CCCCC1
45 | – | – | – | 400 | 0.3 | – | Cc1cc(C)cc(-c2[nH]c3ccc(C(=O)N(C(C)C)C(C)C)cc3c2CCNCCCCc2ccncc2)c1
46 | – | – | – | > 1300 | 0.5 | – | Cc1cc(C)cc(-c2[nH]c3ccc(C(=O)N4CCCC4)cc3c2CCNCCCCc2ccncc2)c1
47 | 62 | – | 3.6 | 360 | – | – | Cc1cc(C)cc(-c2[nH]c3ccc(C(=O)N4C(C)CCC4C)cc3c2CCNCCCCc2cccnc2)c1 (stereo not given)
48 | – | – | – | 1400 | 0.3 | – | Cc1cc(C)cc(-c2[nH]c3ccc(C(=O)N4CCOCC4)cc3c2CCNCCCCc2ccncc2)c1
49 | – | – | – | 5100 | 0.6 | – | Cc1cc(C)cc(-c2[nH]c3ccc(C(=O)N4CCCC4)cc3c2CCNCCCCc2cccnc2)c1
